System: endothelial nitric oxide synthase
Assay: Screen for endothelial nitric oxide synthase inhibiting activity
Assay type: biochemical, human
Conditions: reference standard at 1 μM; endothelial enzyme from HUVECs
Text: Nitric oxide synthase converts ^3 H-L-arginine into ^3 H-L-citrulline which can be separated by cation exchange chromatography and quantified by scintillation counting.
The enzyme is isolated from human umbilical vein endothelial cells (HUVECs) by a procedure based on that of Pollock et al in Proc. Natl. Acad. Sci., 1991, 88, 10480-10484. HUVECs were purchased from Clonetics Corp (San Diego, Calif., USA) and cultured to confluency. Cells can be maintained to passage 35-40 without significant loss of yield of nitric oxide synthase. When cells reach confluency, they are resuspended in Dulbecco's phosphate buffered saline, centrifuged at 800 rpm for 10 minutes, and the cell pellet is then homogenised in ice-cold 50 mM Tris-HCl, 1 mM EDTA, 10% glycerol, 1 mM phenylmethylsulphonylfluoride, 2 μM leupeptin at pH 4.2. Following centrifugation at 34,000 rpm for 60 minutes, the pellet is solubilised in the homogenisation buffer which also contains 20 mM CHAPS. After a 30 minute incubation on ice, the suspension is centrifuged at 34,000 rpm for 30 minutes. The resulting supernatant is stored at -80° C. until use. […]
Labelled L-citrulline is separated from labelled L-arginine by chromatography over a Dowex AG-50W-X8 200-400 mesh column. […] The L-citrulline is then quantified by scintillation counting. […]

N=C(NCCC[C@H](N)C(=O)O)N[N+](=O)[O-] [N-nitro-L-arginine]
inhibition of nitric oxide synthetase: 70-90%
